PMC6028903, “Solubility Thermodynamics of CyMe 4 -BTBP in Various Diluents Mixed with TBP” (Journal of Solution Chemistry, 2018)
≈ marks a conversion by molar mass, not a printed value. Where two headings read alike, the source gives them in different places. Marks after values point to notes of the source that are not given here.

What was measured:
[1] = literature; cited from earlier work
[2] = design: method as in earlier work; conditions: literature; cited from earlier work
[3] = literature; cited from earlier work; remark: listed apart in the source
[4] = 298 K; cited from earlier work
[5] = Solubility of CyMe4-BTBP in GANEX solvents (70% vol diluent, 30% vol TBP), UV-VIS of the Fe2+ complex; assay type: physicochemical; conditions: organic solvent or mixture, thermodynamic from solid
[6] = Dissolution thermodynamics of CyMe4-BTBP (van't Hoff linear fit and heat capacity calculation); assay type: physicochemical; conditions: for c (288 K), calculated CyMe 4 -BTBP concentration / c (298 K), calculated CyMe 4 -BTBP concentration / c (308 K), calculated CyMe 4 -BTBP concentration: calculated from linear fits; for ΔG^0 (288 K) / ΔG^0 (298 K) / ΔG^0 (308 K): from linear fits; for ΔH^0 / ΔS^0: calculated using ΔCp; for ΔH^0 linear / ΔS^0 linear: linear fit
[7] = 10 mmol/L CyMe4-BTBP, cited from earlier work
[8] = design: method as in doi:10.1080/07366299.2011.539462; conditions: cited from earlier work
[9] = Surface tension against air (du Noüy ring method); assay type: physicochemical; conditions: 294 K, 0.1 MPa
Protocol: (§1) The density, ρ , and surface tension, γ , against air (using the du Noüy ring method) for the different solvents was measured at room temperature (293–295 K) using a tensiometer (Sigma 700, Attension). The surface tensiometer ring was lowered into the organic phase until it was totally immersed. The tensiometer then measured the surface tension automatically by slowly pulling out the ring of the organic phase and measuring the force required to detach the ring from the organic surface. The density was measured using the same tensiometer and a calibrated density probe.

[10] = Density (tensiometer with density probe); assay type: physicochemical; conditions: 294 K, 0.1 MPa
Protocol: as §1

[11] = Cyclohex./TBP b, pre-equilibrated with HNO3
[12] = Cyclohex./TBP b, pre-equilibrated
[13] = FS-13/TBP b, pre-equilibrated with HNO3
[14] = Octanol/TBP b, pre-equilibrated with HNO3
[15] = Octanol/TBP b, pre-equilibrated

CCCCCCCCO [1-Octanol, 1-octanol]
Surface tension [1]: 27.2^a mN · m ^-1
Density [2]: 0.83^b g · cm ^-3
Flash point [3]: 358 K^a
Solvent in water [4]: 0.0538^b wt%
Water in solvent [4]: 4.2^c wt%

CC1(C)CCC(C)(C)c2nc(-c3cccc(-c4cccc(-c5nnc6c(n5)C(C)(C)CCC6(C)C)n4)n3)nnc21 [CyMe 4 -BTBP, 6,6′-bis(5,5,8,8-tetramethyl-5,6,7,8-tetrahydrobenzo[1,2,4]triazin-3-yl)[2,2′]bipyridine]
solubility at 3 days ([5]; GANEX solvent 1-octanol/TBP, 25 °C, Octanol/TBP, 70% vol diluent and 30% vol TBP, 298 K, read-out: CyMe 4 -BTBP solubility at 298 K): 13 mM (≈ 6.95 mg/mL)
solubility at 3 days ([5]; GANEX solvent FS-13/TBP, 25 °C, FS-13/TBP, 70% vol diluent and 30% vol TBP, 298 K, read-out: CyMe 4 -BTBP solubility at 298 K): 130 mM (≈ 69.5 mg/mL)
solubility at 3 days ([5]; GANEX solvent FS-13/TBP, 70% vol FS-13 and 30% vol TBP, 4 mol/L NaCl in Milli-Q water instead of nitric acid, single sample, read-out: CyMe 4 -BTBP solubility): 20 mM (≈ 10.7 mg/mL)
solubility at 3 days ([5]; GANEX solvent FS-13/TBP, 70% vol FS-13 and 30% vol TBP, 4 mol/L hydrochloric acid instead of nitric acid, single sample, read-out: CyMe 4 -BTBP solubility): 30 mM (≈ 16 mg/mL)
solubility at 3 days ([5]; GANEX solvent FS-13/TBP, 70% vol FS-13 and 30% vol TBP, Milli-Q water instead of nitric acid, single sample, read-out: CyMe 4 -BTBP solubility): 15 mM (≈ 8.02 mg/mL)
solubility at 3 days ([5]; GANEX solvent cyclohexanone/TBP, 25 °C, Cyclohex./TBP, 70% vol diluent and 30% vol TBP, 298 K, read-out: CyMe 4 -BTBP solubility at 298 K): 180 mM (≈ 96.2 mg/mL)
c (288 K), calculated CyMe 4 -BTBP concentration ([6]; Cyclohex./TBP a, pristine): 13 mmol · L ^-1
ΔG^0 (288 K) ([6]; Cyclohex./TBP a, pristine): 10.5 kJ · mol ^-1
c (298 K), calculated CyMe 4 -BTBP concentration ([6]; Cyclohex./TBP a, pristine): 27 mmol · L ^-1
ΔG^0 (298 K) ([6]; Cyclohex./TBP a, pristine): 8.9 kJ · mol ^-1
c (308 K), calculated CyMe 4 -BTBP concentration ([6]; Cyclohex./TBP a, pristine): 56 mmol · L ^-1
ΔG^0 (308 K) ([6]; Cyclohex./TBP a, pristine): 7.4 kJ · mol ^-1
ΔH^0 ([6]; Cyclohex./TBP a, pristine): 53 kJ · mol ^-1
ΔS^0 ([6]; Cyclohex./TBP a, pristine): 150 J · mol ^-1· K ^-1
ΔH^0 linear ([6]; Cyclohex./TBP a, pristine): 54.4 ± 2.6 kJ · mol ^-1
ΔS^0 linear ([6]; Cyclohex./TBP a, pristine): 152.4 ± 1.9 J · mol ^-1· K ^-1
ΔCp [6, 11]: 1.4 kJ · mol ^-1· K ^-1
ΔH^0 [6, 11]: 15 kJ · mol ^-1
ΔS^0 [6, 11]: 38 J · mol ^-1· K ^-1
ΔH^0 linear [6, 11]: 13.3 ± 0.5 kJ · mol ^-1
ΔS^0 linear [6, 11]: 30.8 ± 0.3 J · mol ^-1· K ^-1
c (288 K), calculated CyMe 4 -BTBP concentration [6, 12]: 160 mmol · L ^-1
ΔG^0 (288 K) [6, 12]: 4.4 kJ · mol ^-1
c (298 K), calculated CyMe 4 -BTBP concentration [6, 12]: 190 mmol · L ^-1
ΔG^0 (298 K) [6, 12]: 4.1 kJ · mol ^-1
c (308 K), calculated CyMe 4 -BTBP concentration [6, 12]: 230 mmol · L ^-1
ΔG^0 (308 K) [6, 12]: 3.8 kJ · mol ^-1
ΔCp ([6]; FS-13/TBP a, pristine): 1.3 kJ · mol ^-1· K ^-1
c (288 K), calculated CyMe 4 -BTBP concentration ([6]; FS-13/TBP a, pristine): 14 mmol · L ^-1
ΔG^0 (288 K) ([6]; FS-13/TBP a, pristine): 10.3 kJ · mol ^-1
c (298 K), calculated CyMe 4 -BTBP concentration ([6]; FS-13/TBP a, pristine): 16 mmol · L ^-1
ΔG^0 (298 K) ([6]; FS-13/TBP a, pristine): 10.3 kJ · mol ^-1
c (308 K), calculated CyMe 4 -BTBP concentration ([6]; FS-13/TBP a, pristine): 17 mmol · L ^-1
ΔG^0 (308 K) ([6]; FS-13/TBP a, pristine): 10.4 kJ · mol ^-1
ΔH^0 ([6]; FS-13/TBP a, pristine, 288, 298, 308 K): 8 kJ · mol ^-1
ΔH^0 linear ([6]; FS-13/TBP a, pristine): 8.3 ± 0.6 kJ · mol ^-1
ΔH^0 [6, 13]: 27 kJ · mol ^-1
ΔS^0 [6, 13]: 72 J · mol ^-1· K ^-1
ΔH^0 linear [6, 13]: 26.6 ± 0.3 kJ · mol ^-1
ΔS^0 linear [6, 13]: 72.1 ± 0.2 J · mol ^-1· K ^-1
c (288 K), calculated CyMe 4 -BTBP concentration ([6]; FS-13/TBP b, pre-equilibrated): 90 mmol · L ^-1
ΔG^0 (288 K) ([6]; FS-13/TBP b, pre-equilibrated): 5.8 kJ · mol ^-1
c (298 K), calculated CyMe 4 -BTBP concentration ([6]; FS-13/TBP b, pre-equilibrated): 130 mmol · L ^-1
ΔG^0 (298 K) ([6]; FS-13/TBP b, pre-equilibrated): 5.1 kJ · mol ^-1
c (308 K), calculated CyMe 4 -BTBP concentration ([6]; FS-13/TBP b, pre-equilibrated): 180 mmol · L ^-1
ΔG^0 (308 K) ([6]; FS-13/TBP b, pre-equilibrated): 4.4 kJ · mol ^-1
c (288 K), calculated CyMe 4 -BTBP concentration ([6]; Octanol/TBP a, pristine): 3.4 mmol · L ^-1
ΔG^0 (288 K) ([6]; Octanol/TBP a, pristine): 13.6 kJ · mol ^-1
c (298 K), calculated CyMe 4 -BTBP concentration ([6]; Octanol/TBP a, pristine): 4.3 mmol · L ^-1
ΔG^0 (298 K) ([6]; Octanol/TBP a, pristine): 13.4 kJ · mol ^-1
c (308 K), calculated CyMe 4 -BTBP concentration ([6]; Octanol/TBP a, pristine): 5.5 mmol · L ^-1
ΔG^0 (308 K) ([6]; Octanol/TBP a, pristine): 13.3 kJ · mol ^-1
ΔH^0 ([6]; Octanol/TBP a, pristine): 17 kJ · mol ^-1
ΔS^0 ([6]; Octanol/TBP a, pristine): 14 J · mol ^-1· K ^-1
ΔH^0 linear ([6]; Octanol/TBP a, pristine): 18.0 ± 1.1 kJ · mol ^-1
ΔS^0 linear ([6]; Octanol/TBP a, pristine): 15.0 ± 0.8 J · mol ^-1· K ^-1
ΔCp [6, 14]: 2.3 kJ · mol ^-1· K ^-1
ΔH^0 [6, 14]: 21 kJ · mol ^-1
ΔS^0 [6, 14]: 33 J · mol ^-1· K ^-1
ΔH^0 linear [6, 14]: 20.0 ± 1.0 kJ · mol ^-1
ΔS^0 linear [6, 14]: 31.6 ± 0.7 J · mol ^-1· K ^-1
c (288 K), calculated CyMe 4 -BTBP concentration [6, 15]: 11 mmol · L ^-1
ΔG^0 (288 K) [6, 15]: 10.9 kJ · mol ^-1
c (298 K), calculated CyMe 4 -BTBP concentration [6, 15]: 14 mmol · L ^-1
ΔG^0 (298 K) [6, 15]: 10.6 kJ · mol ^-1
c (308 K), calculated CyMe 4 -BTBP concentration [6, 15]: 18 mmol · L ^-1
ΔG^0 (308 K) [6, 15]: 10.2 kJ · mol ^-1
Americium distribution ratio at 298 K using 10 mmol · L ^-1 CyMe 4 -BTBP ([7]; Cyclohex./TBP): 160^b
Americium distribution ratio at 298 K using 10 mmol · L ^-1 CyMe 4 -BTBP ([7]; FS-13/TBP): 30^a
Americium distribution ratio at 298 K using 10 mmol · L ^-1 CyMe 4 -BTBP ([7]; Octanol/TBP): 30^c
Solubility in a nitric acid aqueous phase [8]: not soluble above the detection limit

O=C1CCCCC1 [Cyclohexanone, cyclohexanone]
Surface tension [1]: 34.4^a mN · m ^-1
Density [2]: 0.95^b g · cm ^-3
Flash point [3]: 317 K^a
Solvent in water [4]: 2.3^b wt%
Water in solvent [4]: 8.0^b wt%

O=S(=O)(c1ccccc1)C(F)(F)F [FS-13, phenyl trifluoromethyl sulfone]
Surface tension [9]: 26.6 ± 0.01 mN · m ^-1
Density [10]: 1.40 ± 0.01 g · cm ^-3
Flash point [3]: 395 K^d
